In PMC6155626 (Molecules : A Journal of Synthetic Chemistry and Natural …, 2016):
In brackets after ≈: the same amount, converted by molar mass.

Experiments:
[1] = system: Xanthomonas axonopodis pv. citri; experiment: microbe, parasite or virus in culture; assay type: cell-based; conditions: Xanthomonas axonopodis; for inhibition at 100 µg/mL / inhibition at 200 µg/mL: read-out: Inhibition rate
Ralstonia solanacearum = experiment: microbe, parasite or virus in culture; assay type: cell-based; conditions: Ralstonia solanacearum; for EC50: R. solanacearum; for inhibition at 100 µg/mL / inhibition at 200 µg/mL: read-out: Inhibition rate
[2] = system: Xanthomonas oryzae pv. oryzae; experiment: microbe, parasite or virus in culture; assay type: cell-based; conditions: for EC50 / inhibition at 100 µg/mL / inhibition at 200 µg/mL: Xanthomonas oryzae; for inhibition at 100 µg/mL: read-out: Inhibition rate, X. oryzae, 100 μg/mL, average of three replicates; for inhibition at 200 µg/mL: read-out: Inhibition rate, X. oryzae, 200 μg/mL, average of three replicates; for Inhibition rate: X. oryzae, 200 μg/mL, average of three replicates

SMILES	EC50 [1]	inhibition at 100 µg/mL [1]	inhibition at 200 µg/mL [1]	EC50 (Ralstonia solanacearum)	inhibition at 100 µg/mL (Ralstonia solanacearum)	inhibition at 200 µg/mL (Ralstonia solanacearum)	melting point	EC50 [2]	inhibition at 100 µg/mL [2]	inhibition at 200 µg/mL [2]	Inhibition rate [2]
CS(=O)(=O)c1nnc(COc2ccc(Br)cc2)o1 [Compound 5I-3, 2-((4-Bromophenoxy)methyl)-5-(methylsulfonyl)-1,3,4-oxadiazole]	24.9 ± 2.52 µg/mL (≈ 74.7 µM)	90%	91%	19.6 ± 0.98 µg/mL (≈ 58.9 µM)	100%	100%	97 to 99 °C	1.67 ± 0.22 µg/mL (≈ 5.01 µM)	100%	100%	
Cc1cc(Cl)ccc1OCc1nnc(S(C)(=O)=O)o1 [Compound 5I-5, 2-((4-Chloro-2-methylphenoxy)methyl)-5-(methylsulfonyl)-1,3,4-oxadiazole]	96.8 ± 5.78 µg/mL (≈ 320 µM)	54%	100%	14.9 ± 1.27 µg/mL (≈ 49.3 µM)	100%	100%		1.67 ± 0.16 µg/mL (≈ 5.52 µM)	100%	100%	
CS(=O)(=O)c1nnc(COc2ccccc2)o1 [Compound 5I-6, 2-(Methylsulfonyl)-5-(phenoxymethyl)-1,3,4-oxadiazole]	85 ± 4.32 µg/mL (≈ 334 µM)	57%	88%	13.6 ± 2.12 µg/mL (≈ 53.3 µM)	100%	100%		1.86 ± 0.23 µg/mL (≈ 7.32 µM)	100%	100%	
CCS(=O)(=O)c1nnc(COc2ccc(F)cc2)o1 [Compound 5I-7, 2-(Ethylsulfonyl)-5-((4-fluorophenoxy)methyl)-1,3,4-oxadiazole]	52.2 ± 2.14 µg/mL (≈ 182 µM)	53%	65%	7.75 ± 1.01 µg/mL (≈ 27.1 µM)	99%	100%		0.52 ± 0.16 µg/mL (≈ 1.82 µM)	100%	100%	
CCS(=O)(=O)c1nnc(COc2ccc(Cl)cc2Cl)o1 [Compound 5I-8, 2-((2,4-Dichlorophenoxy)methyl)-5-(ethylsulfonyl)-1,3,4-oxadiazole]		36%	62%		43%	97%			87%	100%	
O=S(=O)(Cc1ccccc1)c1nnc(COc2ccc(F)cc2)o1 [Compound 5I-9, 2-(Benzylsulfonyl)-5-((4-fluorophenoxy)methyl)-1,3,4-oxadiazole]		50%	72%		25%	33%	94 to 96 °C		100%	100%	
O=S(=O)(Cc1ccccc1)c1nnc(COc2ccc(Cl)cc2)o1 [Compound 5I-10, 2-(Benzylsulfonyl)-5-((4-chlorophenoxy)methyl)-1,3,4-oxadiazole]		62%	74%		19%	24%	126 to 128 °C		48%	90%	
O=S(=O)(Cc1ccccc1)c1nnc(COc2ccc(Br)cc2)o1 [Compound 5I-11, 2-(Benzylsulfonyl)-5-((4-bromophenoxy)methyl)-1,3,4-oxadiazole]		16%	11%		13%	18%	142 to 143 °C		38%	56%	
O=S(=O)(Cc1ccccc1)c1nnc(COc2ccc(Cl)cc2Cl)o1 [Compound 5I-12, 2-(Benzylsulfonyl)-5-((2,4-dichlorophenoxy)methyl)-1,3,4-oxadiazole]		23%	26%		20%	33%	121 to 122 °C		70%	98%	
Cc1cc(Cl)ccc1OCc1nnc(S(=O)(=O)Cc2ccccc2)o1 [Compound 5I-13, 2-(Benzylsulfonyl)-5-((4-chloro-2-methylphenoxy)methyl)-1,3,4-oxadiazole]		0%	7%		8%	15%	144 to 145 °C		13%	33%	
O=S(=O)(Cc1ccccc1)c1nnc(COc2ccccc2)o1 [Compound 5I-14, 2-(Benzylsulfonyl)-5-(phenoxymethyl)-1,3,4-oxadiazole]		53%	76%		37%	69%	95 to 96 °C		78%	95%	
CS(=O)(=O)c1nnc(COc2ccc(F)cc2)s1 [Compound 5II-1, 2-((4-Fluorophenoxy)methyl)-5-(methylsulfonyl)-1,3,4-thiadiazole]		36%	40%		49%	50%	107 to 109 °C		92%	84 to 99%	99%
CS(=O)(=O)c1nnc(COc2ccc(Cl)cc2)s1 [Compound 5II-2, 2-((4-Chlorophenoxy)methyl)-5-(methylsulfonyl)-1,3,4-thiadiazole]		16%	27%		45%	56%	119 to 120 °C		73%	84 to 99%	84%
CS(=O)(=O)c1nnc(COc2ccc(Br)cc2)s1 [Compound 5II-3, 2-((4-Bromophenoxy)methyl)-5-(methylsulfonyl)-1,3,4-thiadiazole]		18%	25%		7%	26%	114 to 115 °C		28%	30%	
CS(=O)(=O)c1nnc(COc2ccc(Cl)cc2Cl)s1 [Compound 5II-4, 2-((2,4-Dichlorophenoxy)methyl)-5-(methylsulfonyl)-1,3,4-thiadiazole]		20%	23%		15%	18%	160 to 162 °C		18%	16%	
Cc1cc(Cl)ccc1OCc1nnc(S(C)(=O)=O)s1 [Compound 5II-5, 2-((4-Chloro-2-methylphenoxy)methyl)-5-(methylsulfonyl)-1,3,4-thiadiazole]		24%	25%		8%	9%	160 to 161 °C		16%	42%	
CCS(=O)(=O)c1nnc(COc2ccc(F)cc2)s1 [Compound 5II-6, 2-(Ethylsulfonyl)-5-((4-fluorophenoxy)methyl)-1,3,4-thiadiazole]		18%	15%		12%	7%	89 to 90 °C		55%	65%	
